Values after ≈ are worked out from the molar mass of the structure shown.
Key:
Type in all cases: cell-based
[1] = tested on: Streptococcus pneumoniae; assay: Agar Dilution Test (NCCLS), MIC; details: against Streptococcus pneumoniae
[2] = tested on: Klebsiella; assay: Agar Dilution Test (NCCLS), MIC; details: against Klebsiella
[3] = tested on: Pseudomonas aeruginosa; assay: Antibacterial activity
[4] = tested on: Klebsiella pneumoniae; assay: Agar Dilution Test (NCCLS), MIC; details: against Klebsiella pneumoniae
[5] = tested on: Staphylococcus aureus (MSSA); assay: Agar Dilution Test (NCCLS), MIC; details: against Staphylococcus aureus (MSSA)

CN(/N=C/C1=C(C(=O)O)N2C(=O)[C@@H](NC(=O)/C(=N\OCF)c3nsc(N)n3)C2SC1)C(=N)N[C@H]1CC[C@H](N)CC1 (stereo partly drawn) [Example 1, 3-{(E)[[1-trans-(4-Amino-cyclohexylamino)-iminomethyl]-methylhydrazono]methyl}-7-{[(5-amino-1,2,4-thiadiazol-3-yl)-(Z)-(fluoromethoxyimino)-acetyl]amino}-3-cephem-4-carboxylic acid]
MIC [1]: ~0.0125 µg/mL (≈ 0.0209 µM) | MIC [2]: 0.0125 to 0.8 µg/mL (≈ 0.0209 to 1.34 µM) | activity against Pseudomonas aeruginosa [3]: shows activtiy | MIC [4]: ~0.0125 µg/mL (≈ 0.0209 µM) | MIC [5]: 0.05 to 0.2 µg/mL (≈ 0.0837 to 0.335 µM)
